From PubChem BioAssay AID2060890 (Molecular Pharmacology Branch, DTP, NCI, 2025)

Test system: LG0703-F948-PDC complex spheroid viability
Assay: Anticancer human tumor LG0703-F948-PDC patient-derived lung adenocarcinoma cell line growth inhibition [RAS]
Settings: for viability, T/C: stronger effect = lower value
In short: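 Tumour cells grown as complex spheroids with HUVEC endothelial cells and mesenchymal stem cells, treated with RAS pathway inhibitor combinations. Each agent spans half-log steps from near clinical Cmax, or 10 microM where Cmax is unknown.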

[1] = curve of first compound, second compound 0.00316 µM
[2] = curve of first compound, second compound 0.01 µM
[3] = curve of first compound, second compound 0.0316 µM
[4] = curve of first compound, second compound 0.1 µM
[5] = curve of first compound, second compound 0.316 µM
[6] = curve of first compound, second compound 1 µM
[7] = second compound 0.00316 µM, first compound 0.0316 µM
[8] = second compound 0.00316 µM, first compound 0.1 µM
[9] = second compound 0.00316 µM, first compound 0.316 µM
[10] = second compound 0.00316 µM, first compound 1 µM
[11] = second compound 0.00316 µM, first compound 3.16 µM
[12] = second compound 0.00316 µM, first compound 10 µM
[13] = second compound 0.01 µM, first compound 0.0316 µM
[14] = second compound 0.01 µM, first compound 0.1 µM
[15] = second compound 0.01 µM, first compound 0.316 µM
[16] = second compound 0.01 µM, first compound 1 µM
[17] = second compound 0.01 µM, first compound 3.16 µM
[18] = second compound 0.01 µM, first compound 10 µM
[19] = second compound 0.0316 µM, first compound 0.0316 µM
[20] = second compound 0.0316 µM, first compound 0.1 µM
[21] = second compound 0.0316 µM, first compound 0.316 µM
[22] = second compound 0.0316 µM, first compound 1 µM
[23] = second compound 0.0316 µM, first compound 3.16 µM
[24] = second compound 0.0316 µM, first compound 10 µM
[25] = second compound 0.1 µM, first compound 0.0316 µM
[26] = second compound 0.1 µM, first compound 0.1 µM
[27] = second compound 0.1 µM, first compound 0.316 µM
[28] = second compound 0.1 µM, first compound 1 µM
[29] = second compound 0.1 µM, first compound 3.16 µM
[30] = second compound 0.1 µM, first compound 10 µM
[31] = second compound 0.316 µM, first compound 0.0316 µM
[32] = second compound 0.316 µM, first compound 0.1 µM
[33] = second compound 0.316 µM, first compound 0.316 µM
[34] = second compound 0.316 µM, first compound 1 µM
[35] = second compound 0.316 µM, first compound 3.16 µM
[36] = second compound 0.316 µM, first compound 10 µM
[37] = second compound 1 µM, first compound 0.0316 µM
[38] = second compound 1 µM, first compound 0.1 µM
[39] = second compound 1 µM, first compound 0.316 µM
[40] = second compound 1 µM, first compound 1 µM
[41] = second compound 1 µM, first compound 3.16 µM
[42] = second compound 1 µM, first compound 10 µM
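Also: spheroids exposed to agents for 7 days.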
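For viability, T/C in this document: 100% = DMSO vehicle wells.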

For `C[C@@H](NC(=O)c1ncnc(N)c1Cl)c1ncc(C(=O)Nc2cc(C(F)(F)F)c(Cl)cn2)s1` + C=CC(=O)N1CCN(c2nc(OCC3CCCN3C)nc3c(F)c(-c4nc(N)cc(C)c4C(F)(F)F)c(Cl)cc23)C(C)C1, the IC50 [1] was > 10 µM, the IC50 [2] was > 10 µM and the IC50 [3] was > 10 µM. For the same compound, the IC50 [4] was > 10 µM, the IC50 [5] was > 10 µM and the IC50 [6] was > 10 µM. For the same compound, the viability, T/C [7] was 99.4%, the viability, T/C [8] was 100% and the viability, T/C [9] was 107%. It also gave a viability, T/C [10] of 110%, a viability, T/C [11] of 104% and a viability, T/C [12] of 93%. It also gave a viability, T/C [13] of 113%, a viability, T/C [14] of 103% and a viability, T/C [15] of 107%. The viability, T/C [16] was 111%, the viability, T/C [17] was 109% and the viability, T/C [18] was 97.2%. For the same compound, the viability, T/C [19] was 103%, the viability, T/C [20] was 109% and the viability, T/C [21] was 95.8%. It also gave a viability, T/C [22] of 102%, a viability, T/C [23] of 121% and a viability, T/C [24] of 95.2%. It also gave a viability, T/C [25] of 106%, a viability, T/C [26] of 109% and a viability, T/C [27] of 113%. For the same compound, the viability, T/C [28] was 109%, the viability, T/C [29] was 118% and the viability, T/C [30] was 95.2%. The viability, T/C [31] was 118%, the viability, T/C [32] was 105% and the viability, T/C [33] was 108%. The viability, T/C [34] was 114%, the viability, T/C [35] was 117% and the viability, T/C [36] was 100%. It also gave a viability, T/C [37] of 115%, a viability, T/C [38] of 116% and a viability, T/C [39] of 118%. It also gave a viability, T/C [40] of 132%, a viability, T/C [41] of 129% and a viability, T/C [42] of 98.3%.
With `C=CC(=O)Nc1cc(Nc2nccc(-c3cn(C)c4ccccc34)n2)c(OC)cc1N(C)CCN(C)C` the viability, T/C (compound 0.00316 µM) was 90.6% [middle of 4 runs], the viability, T/C (compound 0.01 µM) was 50.2% [middle of 4 runs] and the viability, T/C (compound 0.0316 µM) was 21.9% [middle of 4 runs]. The viability, T/C (compound 0.1 µM) was 16.2% [middle of 4 runs], the viability, T/C (compound 0.316 µM) was 17.2% [middle of 4 runs] and the viability, T/C (compound 1 µM) was 12.8% [middle of 4 runs]. For the same compound, the IC50 (curve of compound) was 10.1 nM [middle of 4 runs].
With `CC(=O)OC12COC1CC(O)C1(C)C(=O)C(O)C3=C(C)C(OC(=O)C(O)C(NC(=O)OC(C)(C)C)c4ccccc4)CC(O)(C(OC(=O)c4ccccc4)C21)C3(C)C` (stereo unspecified) + C=CC(=O)N1CCN(c2nc(OCC3CCCN3C)nc3c(F)c(-c4nc(N)cc(C)c4C(F)(F)F)c(Cl)cc23)C(C)C1 the IC50 [1] was < 0.0316 µM, the IC50 [2] was < 0.0316 µM and the IC50 [3] was < 0.0316 µM. For the same compound, the IC50 [4] was < 0.0316 µM, the IC50 [5] was < 0.0316 µM and the IC50 [6] was < 0.0316 µM. For the same compound, the viability, T/C [7] was 26.8%, the viability, T/C [8] was 25.4% and the viability, T/C [9] was 22.2%. For the same compound, the viability, T/C [10] was 23.7%, the viability, T/C [11] was 29.5% and the viability, T/C [12] was 27.1%. It also gave a viability, T/C [13] of 23.1%, a viability, T/C [14] of 24.4% and a viability, T/C [15] of 26.5%. It also gave a viability, T/C [16] of 23.5%, a viability, T/C [17] of 30.9% and a viability, T/C [18] of 27.5%. It also gave a viability, T/C [19] of 28.5%, a viability, T/C [20] of 26.2% and a viability, T/C [21] of 26.1%. The viability, T/C [22] was 30.7%, the viability, T/C [23] was 22.3% and the viability, T/C [24] was 29%. The viability, T/C [25] was 22.1%, the viability, T/C [26] was 26.4% and the viability, T/C [27] was 28.6%. For the same compound, the viability, T/C [28] was 28.8%, the viability, T/C [29] was 27.4% and the viability, T/C [30] was 24.7%. The viability, T/C [31] was 24.9%, the viability, T/C [32] was 24% and the viability, T/C [33] was 26.4%. It also gave a viability, T/C [34] of 30.4%, a viability, T/C [35] of 28.1% and a viability, T/C [36] of 23.6%. It also gave a viability, T/C [37] of 31.5%, a viability, T/C [38] of 27.3% and a viability, T/C [39] of 27.9%. The viability, T/C [40] was 29.2%, the viability, T/C [41] was 33.5% and the viability, T/C [42] was 32%.
